By IC50 is commonly meant the concentration needed to halve the response being measured. The term T/C denotes the result in the treated group divided by that in the control group, in per cent.

SMILES strings stand for the structures. Several values for one entry are separate records, joined by “and”; a condition that tells them apart may be missing. Equal entries are not always repeated. Where two headings read alike, the source gives them in different places. A value given as a limit tells only on which side of the number the result lay.

We go through four compounds from patent US6500858B2, “Taxoid anti-tumor agents and pharmaceutical compositions thereof” (The Research Foundation of the state University of New York, priority 1994, dated 2002).

A short description of data set [1]: cytotoxicity of C-3′ modified docetaxel analog (cell line not clearly stated). Type of data set: cell-based. The note with it: compared with isobutenyl group of RAH-1.
For data set [2], the system named is LCC6-WT: human breast carcinoma. Description: cytotoxicity assay of second generation taxoids. Type of data set: cell-based. The settings on record: Homo sapiens, 72 h, read-out: LCC6-WT IC50. As to the method: A cytotoxicity assay of these new second generation taxoids was performed on human breast cancer cell lines, LCC6-WT and LCC-MDR, and selected taxoids were also assayed for their potency against MCF7 and MCF7-R (Skehan, P., et al., J. Nat. Cancer Inst. 1990, 82, 1107-1112).

The subject of the next data set is DU-145. Put plainly: growth inhibition by cell counts, 72 h. It is filed as cell-based, human. The note with it: read-out: DU-145 IC50. Here is the method:
(§1) Cells were plated in 6-well flat bottom plates (Falcon, Lincoln Park, N.J.) at a concentration of 10^5 cells ml in complete medium. After 24 h, the medium was replaced with media containing the test substances. Control cells were treated with vehicle alone. Cells were then washed twice and cultures maintained up to 72 h in complete medium (without removing the test substances). At this time point quadruplicate counts of triplicate cultures were performed. To calculate the growth inhibition effect, three independent experiments were performed for each test substance/cell line. The IC50 values were then calculated by fitting the concentration-effect curve data obtained in the three experiments with the sigmoid-Emax model using nonlinear regression, weighted by the reciprocal of the square of the predicted effect according to the method of Motulsky, H. J. and Ransnas, L. A., FASEB J. 1:365-74 (1987).

A further data set has as its system NCI-H23. Description: growth inhibition by cell counts, 72 h. It is filed as cell-based, human. The note with it: read-out: NCI-H23 IC50. As to the method:
as §1

Another data set has as its system MCF-7 wt. Description: growth inhibition by cell counts, 72 h. It is filed as cell-based, human. The note with it: read-out: MCF-7 wt IC50. As to the method:
as §1

For a further data set, the system named is WiDr. Description: growth inhibition by cell counts, 72 h. The note with it: read-out: WiDr IC50. Type of data set: cell-based, human. As to the method:
as §1

In another data set the test system is MCF-7 ADRr. Description: growth inhibition by cell counts, 72 h. The note with it: read-out: MCF-7 ADRr IC50. Type of data set: cell-based, human. Here is the method:
as §1

The subject of another data set is PC-3. Put plainly: growth inhibition by cell counts, 72 h. Type of data set: cell-based, human. Here is the method: as §1
The test system of another data set is A2780. Description: growth inhibition by cell counts, 72 h. The settings on record: read-out: A2780 IC50. Type of data set: cell-based, human. As to the method: as §1
Data set [3] concerns LCC6-MDR: MDR1 transduced line. Put plainly: cytotoxicity assay of second generation taxoids. Type of data set: cell-based, human. The note with it: Homo sapiens, LCC6MDR, 72 h, read-out: LCC6-MDR IC50.
The test system of the next data set is HT-29 (colon carcinoma). Description: tumor cell growth inhibition (SRB, 72 h drug exposure). Type of data set: cell-based, human. The settings on record: 72 h drug exposure.
A further data set concerns MCF7 (mammary carcinoma). Described as above. Type of data set: cell-based, human.
For another data set, the system named is A121 (ovarian carcinoma). Described as above. Type of data set: cell-based, human. The note with it: 72 h drug exposure.
In data set [4] the test system is MCF7-R (mammary carcinoma cells 180-fold resistant to adriamycin). The description is as above. Type of data set: cell-based, human.
Data set [5] concerns A549 (non-small cell lung carcinoma). The data set is described as above. Type of data set: cell-based, human. The settings on record: 72 h drug exposure; read-out: A549 (NSCLC) IC50.
For data set [6], the system named is multi-drug resistant phenotype human colon carcinoma cells HCT-116/VM. The settings on record: cited from earlier work.
For data set [7], the system named is human colon carcinoma cells HCT-116. The settings on record: cited from earlier work.
Data set [8] deals with docetaxel-resistant melanoma, B16/TXT. Put plainly: intravenous administration to B16/TXT melanoma-bearing mice. It is filed as in vivo, B6D2F1 female mice. On the set-up: key to Responses (activity rating): A = active; HA = highly active. The note with it: for T/C / log10 cell kill: days 3, 5, 7. As to the method: (§2) The efficacy of the test compounds on solid tumors in vivo was determined experimentally according to the following general experimental protocol:
(§3) The mice subjected to the experiment were subcutaneously grafted bilaterally with 30 to 60 mg of a tumor fragment on day zero. Mice bearing tumors were mixed before being subjected to the various treatments and controls. In the case of treatment of advanced tumors, tumors were allowed to develop to the desired size, and mice having insufficiently developed tumors were eliminated. The selected mice were distributed at random to undergo the treatments and controls. Mice not bearing tumors may also be subjected to the same treatments as the tumor-bearing mice in order to be able to dissociate the toxic effect from the specific effect on the tumor. Chemotherapy generally began from 3 to 22 days after grafting, depending on the type of tumor, and the mice were observed every day. The different mice groups were weighed 3 or 4 times a week until the maximum weight loss was attained (nadir), and the groups were then weighed at least once a week until the end of the trial.
(§4) The tumors were measured 2 or 3 times a week until the tumor reached approximately 2 grams, or until the animal died, if this occurred before the tumor reached 2 grams. The mice were autopsied when sacrificed.
(§5) The antitumor activity was determined in accordance with different parameters recorded such as dose (mg/kg), mode of administration, time of administration, cytotoxicity, toxicity and log10 cell kill.
SB-T-1213, SB-T-121303, SB-T-121304 and SB-T-1250 were evaluated in B6D2F1 female mice bearing the docetaxel-resistant melanoma, B16/TXT. The general experimental protocol was as described above. The compounds evaluated were administered intravenously on an intermittent schedule on days 3, 5, and 7 post tumor implantation.

For data set [9], the system named is mammary adenocarcinoma MA17/A. Put plainly: oral administration to MA17/A tumor-bearing mice. Type of data set: in vivo, C3H/HeN female mice. On the set-up: key to Responses (activity rating): A = active; HA = highly active. As to the method: as §2, §3, §4, §5
SB-T-1213 was evaluated in C3H/HeN female mice bearing mammary adenocarcinoma MA17/A with an intermittent schedule of oral administrations. The compound for administration was formulated in 10% ethanol, 10% polysorbate 80, and 80% glucose/5% water.
SB-T-1213 was administered 3 times a day on 3 and 7 days post tumor implantation. The two highest dosages of 36.4 and 22.6 mg/kg/adm. were toxic, producing 5/5 drug related deaths (DD) and 20% body weight loss, respectively. However, the highest nontoxic dose of 14 mg/kg/adm. (total dose of 84 mg/kg), produced 8.4% body weight loss at nadir, 4 days post therapy. […] One of five mice was a tumor-free survivor (TFS) on day 94 post tumor implantation with this dosage. Two lower dosages of 8.7 and 5.4 mg/kg/adm. also maintained activity, having a log10 cell kill of greater than 3 and of 2.5, respectively.

Another data set relates to B16 melanoma. Put plainly: intravenous administration to mice bearing B16 melanoma. Type of data set: in vivo, B6D2F1 female mice. Further details: key to Responses (activity rating): A = active; HA = highly active. Here is the method: as §2, §3, §4, §5
SB-T-1213, SB-T-121303, SB-T-121304 and SB-T-1250 were evaluated in B6D2F1 female mice bearing B16 melanoma. The general experimental protocol was as described above. The compounds evaluated were administered intravenously (iv) on an intermittent schedule on days 3, 5, and 7 post tumor implantation. With the exception of SB-T-1250, solutions of the compounds for administration were prepared in 5% ethanol, 5% polysorbate 80, and 90% glucose 5% water.

In [1], `CC(=O)OC12COC1CC(O)C1(C)C(=O)C(O)C3=C(C)C(OC(=O)C(O)C(C=Cc4ccccc4)NC(=O)OC(C)(C)C)CC(O)(C(OC(=O)c4ccccc4)C21)C3(C)C` (centres unmarked) [3′-dephenyl-3′-(2-phenylethenyl)docetaxel] displayed a decrease in cytotoxicity greater than 20 times.
As to `CC(=O)O[C@H]1C(=O)[C@@]2(C)[C@H]([C@H](OC(=O)c3ccccc3)[C@]3(O)C[C@H](OC(=O)[C@H](O)[C@@H](NC(=O)c4ccccc4)c4ccccc4)C(C)=C1C3(C)C)[C@]1(OC(C)=O)CO[C@@H]1C[C@@H]2O` [Paclitaxel, paclitaxel, reference compound], the IC50 in data set [2] stood at 3.1 nM; in the data set with DU-145 (Homo sapiens, DU-145, 72 h), 1.5 nM; in the data set on NCI-H23 (Homo sapiens, NCI-H23, 72 h), 4.1 nM; in the data set with MCF-7 wt (Homo sapiens, MCF7, 72 h) it was 5.8 nM; in the data set with WiDr (Homo sapiens, WiDr) it was 3.8 nM; in the data set with MCF-7 ADRr (Homo sapiens, MCF7, 72 h), 3300 nM. Moreover, the IC50 in the data set on PC-3 (Homo sapiens, PC-3, 72 h) is 3.4 nM; with A2780 (Homo sapiens, A2780, 72 h), 5.4 nM; in data set [3] it was 346 nM; in the data set with HT-29 (colon carcinoma) (Homo sapiens, HT-29), 3.2 nM; in the data set with MCF7 (mammary carcinoma) (Homo sapiens, MCF7, 72 h drug exposure, Table 1, read-out: MCF7 (breast) IC50), 1.7 nM; in the data set on MCF7 (mammary carcinoma) (Homo sapiens, MCF7, 72 h drug exposure, Table 3, read-out: MCF7 IC50), 1.7 nM. Also, the IC50 with A121 (ovarian carcinoma) (Homo sapiens, A121) is 6.1 nM; in data set [4] (Homo sapiens, MCF7R, 72 h drug exposure, Table 1) it was 300 nM.
Turning to `CC(=O)OC1C(=O)C2(C)C(O)CC3OCC3(OC(C)=O)C2C(OC(=O)c2ccccc2)C2(O)CC(OC(=O)C(O)C(C=C(C)C)NC(=O)c3ccccc3)C(C)=C1C2(C)C` (centres unmarked) [RAH-1, 3′-dephenyl-3′-isobutenylpaclitaxel], the IC50 in the data set with HT-29 (colon carcinoma) was 0.96 nM; in the data set on MCF7 (mammary carcinoma) (72 h drug exposure, Table 1, read-out: MCF7 (breast) IC50), 0.54 nM; with A121 (ovarian carcinoma), 1.4 nM; in [5], 0.45 nM; in data set [4] (72 h drug exposure, Table 1) it was 113 nM. Moreover, the “activity against MCF7-R in words” value in data set [4] (one order of magnitude weaker than Taxoid Ia) is on record as “only marginal activity”. In addition, the “times better activity than docetaxel” value in data set [6] was 9 times; in data set [7], 7 times. Also, the figures for the “times better activity than paclitaxel” value in data set [6] and in data set [7] were “about 20 times” and 4 times, respectively.
On to `CCC(=O)OC1C(=O)C2(C)C(O)CC3OCC3(OC(C)=O)C2C(OC(=O)c2ccccc2)C2(O)CC(OC(=O)C(O)C(C=C(C)C)NC(=O)OC(C)(C)C)C(C)=C1C2(C)C` (centres unmarked) [Taxoid Ib, 3′-Dephenyl-3′-(2-methyl-1-propenyl)-10-propanoyldocetaxel], for which the IC50 in the data set with DU-145 (72 h) was found to be 0.3 nM; in the data set on NCI-H23 (72 h), 0.7 nM; in the data set with MCF-7 wt (72 h), 0.9 nM; with WiDr, 0.4 nM; in the data set on MCF-7 ADRr (72 h), 8 nM; in the data set with PC-3 (72 h), 0.3 nM. Also, the IC50 was 1.77 nM in the data set with A2780 (72 h); 0.21 nM with MCF7 (mammary carcinoma) (Table 2, read-out: MCF7 IC50); 2.16 nM in data set [4] (Table 2). For the same compound, the T/C is on record as 74% in data set [8] (4.5 mg/kg/adm.); 11% in [8] (19 mg/kg/adm.); 0% in data set [9] (14.0 mg/kg/adm., days 3, 7); 0% in the data set on B16 melanoma (11.8 mg/kg/adm., days 3, 5, 7). The “Responses (activity rating)” value in [8] (7.3 mg/kg/adm.) was “A”; in [8] (11.8 mg/kg/adm.), “A”; in [8] (19 mg/kg/adm.) it was “A”; in data set [9] (8.7 mg/kg/adm.), “A”; in [9] (14.0 mg/kg/adm.) it was “HA”; in the data set on B16 melanoma (4.5 mg/kg/adm.), “A”. The “Responses (activity rating)” value in the data set with B16 melanoma (7.3 mg/kg/adm.) is reported as “A”; in the data set with B16 melanoma (11.8 mg/kg/adm.) it was “HA”. Further, the log10 cell kill was determined as 1 in data set [8] (7.3 mg/kg/adm.); 1 in data set [8] (11.8 mg/kg/adm.); 1.6 in data set [8] (19 mg/kg/adm.); 1.6 in the data set with B16 melanoma (4.5 mg/kg/adm., days 3, 5, 7); 1.8 in the data set on B16 melanoma (7.3 mg/kg/adm., days 3, 5, 7); 3 in the data set on B16 melanoma (11.8 mg/kg/adm., days 3, 5, 7). Further, the “% body weight loss at nadir” value in data set [8] (19 mg/kg/adm., days 3, 5, 7, listed as SB-T-1213, 19 mg/kg) was 17.1% and 17.1 (4) %; in data set [9] (14 mg/kg/adm., days 3, 7, total 84 mg/kg, listed as SB-T-1213), 8.4% and 8.4 (4) %; in the data set with B16 melanoma (11.8 mg/kg/adm., days 3, 5, 7, listed as SB-T-1213, 11.8 mg/kg) it was 15.3% and 15.3 (3) %. For the same compound, the “tumor-free survivors (TFS)” value was 1/5 in [9] (8.7 mg/kg/adm.); “One of five and 1/5” in [9] (14 mg/kg/adm., day 94 post tumor implantation, listed as SB-T-1213, 14 mg/kg). Moreover, the body weight loss in [9] (22.6 mg/kg/adm., 3 times a day on days 3 and 7) is 20%. In addition, the “drug related deaths (DD)” value in data set [9] (36.4 mg/kg/adm., 3 times a day on days 3 and 7) is 5/5; with B16 melanoma (19 mg/kg/adm., days 3, 5, 7), “⅕”. In addition, the highest nontoxic dose in data set [9] (3 times a day on days 3 and 7) is 14 mg/kg/adm; with B16 melanoma (days 3, 5, 7), 11.8 mg/kg/adm.
